For one assay, the species on record is Rattus norvegicus. Description: Inhibition of bone resorption in rat assessed as phosphate. The assay is classed as functional.
Assay [1] has as its target T1, Farnesyl pyrophosphate synthase (Homo sapiens, UniProt P14324).
T1 sequence (P14324 whole entry): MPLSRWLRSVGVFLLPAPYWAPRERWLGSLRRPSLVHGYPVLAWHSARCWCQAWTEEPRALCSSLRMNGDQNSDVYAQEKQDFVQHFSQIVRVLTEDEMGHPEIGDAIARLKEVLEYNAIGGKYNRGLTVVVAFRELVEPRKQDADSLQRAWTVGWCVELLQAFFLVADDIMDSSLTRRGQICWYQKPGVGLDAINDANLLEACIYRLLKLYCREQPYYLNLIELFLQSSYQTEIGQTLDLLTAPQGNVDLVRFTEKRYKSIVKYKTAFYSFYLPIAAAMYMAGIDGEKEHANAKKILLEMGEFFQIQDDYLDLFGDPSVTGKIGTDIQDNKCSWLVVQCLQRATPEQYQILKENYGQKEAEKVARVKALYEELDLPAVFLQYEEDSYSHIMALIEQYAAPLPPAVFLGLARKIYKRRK

Assay [2] has as its target T1, Farnesyl pyrophosphate synthase. The source holds these as a separate data set.

The record followed here is ChEMBL document CHEMBL1142396, “Structure-activity relationships among the nitrogen containing bisphosphonates in clinical use and other analogues: time-dependent inhibition of human farnesyl pyrophosphate synthase” (J Med Chem, 2008).

Active and inactive are the calls of the source. The calls are words filed in the database; no cut-off is given here. A value given as a limit tells only on which side of the number the result lay.

In general, IC50 refers to the midpoint of a concentration-inhibition curve. Read a low IC50 as greater potency in that assay. One may read the Ki as a dissociation constant, usually derived from enzyme kinetics or from competition with a known ligand. Low values mean higher affinity, high ones lower affinity.

Turning to `O=P(O)(O)C(Cc1ccccn1)P(=O)(O)O` [PIRIDRONIC ACID], in the assay filed under Rattus norvegicus, the LED amounted to 10 µg/kg. Besides, the IC50 in assay [1] amounted to 0.259 µM; in assay [2] it was 0.0304 µM. Moreover, the Ki in assay [1] was determined as 0.039 µM; in assay [2], 0.00445 µM.

`CC1CCCN=C1NC(P(=O)(O)O)P(=O)(O)O` (stereo not given): the LED in the assay listed under Rattus norvegicus came out at 0.3 µg/kg. The IC50 came to 0.541 µM in assay [1] and 0.0103 µM in assay [2]. Further, the Ki stood at 0.0863 µM in assay [1] and 0.001 µM in assay [2].

Take `C[n+]1cccc(CC(O)(P(=O)(O)O)P(=O)(O)O)c1`: in the assay listed under Rattus norvegicus, the LED amounted to 0.1 µg/kg. Besides, the half-maximal inhibitory concentration (IC50) is 1.71 µM in assay [1] and 0.0196 µM in assay [2]. Further, the Ki in assay [1] came out at 0.177 µM; in assay [2] it was 0.0039 µM.

For `CCCCCN(C)CCC(O)(P(=O)(O)O)P(=O)(O)O` [IBANDRONIC ACID], the LED in the assay listed under Rattus norvegicus was determined as 0.1 µg/kg.

In the case of `O=C(O)C(O)(Cc1cccnc1)P(=O)(O)O` (stereo not given), the LED in the assay filed under Rattus norvegicus was 300 µg/kg. Further, in assay [1], the IC50 turned out to be 467 µM and the affinity corresponds to a Ki of 97.5 µM. The Ki in assay [2] came out at 61 µM.

`O=P(O)(O)OP(=O)(O)O` [PYROPHOSPHORIC ACID]: in assay [1], the 50% inhibitory concentration (IC50) is 243 µM and the Ki was determined as 40.5 µM. In assay [2], the concentration for half-maximal inhibition (IC50) was determined as 181 µM and the Ki was 29.8 µM.

In the case of `Cc1cccnc1NC(P(C)(=O)O)P(=O)(O)O` (stereo not given), the LED in the assay filed under Rattus norvegicus came out at 1000 µg/kg. For the same compound, the values for the IC50 in assay [1] and in assay [2] were 1.89 µM and 0.0614 µM, respectively. The inhibition constant (Ki) was 0.32 µM in assay [1] and 0.0116 µM in assay [2].

Regarding `Cc1cccnc1NC(P(C)(=O)O)P(C)(=O)O` (stereo not given), the outcome in the assay listed under Rattus norvegicus was inactive. In assay [1], this compound returned a half-inhibitory concentration (IC50) above 10000 µM and a Ki above 4000 µM. Further, in assay [2], the midpoint of inhibition, the IC50, lay at 330 µM and the inhibitory constant (Ki) is 93 µM.

In the case of `O=P(O)(O)C(Nc1ccccn1)P(=O)(O)O`, in the assay filed under Rattus norvegicus, the LED came to 10 µg/kg.

As for `NCCCC(O)(P(=O)(O)O)P(=O)(O)O` [ALENDRONIC ACID], in the assay listed under Rattus norvegicus, the LED was 1 µg/kg.

On to `O=P(O)(O)C(CNc1ccccn1)P(=O)(O)O`, for which the LED in the assay filed under Rattus norvegicus worked out at 10 µg/kg.

`NCCCCCC(O)(P(=O)(O)O)P(=O)(O)O` [NERIDRONIC ACID]: in the assay listed under Rattus norvegicus, the LED was found to be 10 µg/kg.

For `O.O=P(O)(O)C(O)(Cn1ccnc1)P(=O)(O)O` [ZOLEDRONIC ACID], the LED in the assay listed under Rattus norvegicus was 0.1 µg/kg.

Consider `NCCCCC(O)(P(=O)(O)O)P(=O)(O)O`, for which the IC50 was 1.08 µM in assay [1] and 0.298 µM in assay [2]. The Ki in assay [1] amounted to 0.194 µM; in assay [2], 0.0482 µM.

Take `O=P(O)(O)C(Cc1cccnc1)P(=O)(O)O`: the LED in the assay filed under Rattus norvegicus turned out to be 10 µg/kg. Also, in assay [1], the IC50 came out at 0.173 µM and the inhibition constant Ki was 0.0348 µM. Besides, in assay [2], the IC50 stood at 0.0326 µM and the affinity corresponds to a Ki of 0.0074 µM.

As for `O=P(O)(O)CCc1cccnc1`, in assay [2], the IC50 is 824 µM and the inhibitory constant (Ki) worked out at 128 µM.

As for `O=P(O)(O)C(O)(Cc1ccccc1)P(=O)(O)O`, the LED in the assay filed under Rattus norvegicus turned out to be 100 µg/kg.

Turning to `Nc1ccccc1CC(O)(P(=O)(O)O)P(=O)(O)O`, the LED in the assay listed under Rattus norvegicus came out at 1 µg/kg. In assay [1], the half-inhibitory concentration (IC50) stood at 0.371 µM and the Ki came to 0.0646 µM. In assay [2], this compound displayed an IC50 of 0.0216 µM and a Ki of 0.0034 µM.

For `O=P(O)(O)C(O)(CC1CCCCN1)P(=O)(O)O` (stereo not given), in the assay filed under Rattus norvegicus, the LED came to 1 µg/kg. Also, the half-inhibitory concentration (IC50) in assay [1] came to 0.592 µM; in assay [2], 0.0137 µM. The figures for the Ki in assay [1] and in assay [2] were 0.137 µM and 0.0016 µM, respectively.

With `O=P(O)(O)C(O)(Cc1ccccn1)P(=O)(O)O`, the LED in the assay listed under Rattus norvegicus came to 1 µg/kg. For the same compound, in assay [1], the midpoint of inhibition, the IC50, lay at 0.349 µM and the Ki was determined as 0.0593 µM. In assay [2], half-maximal inhibition (IC50) required 0.0092 µM and the affinity corresponds to a Ki of 0.00074 µM.

In the case of `O=P(O)(O)C(O)(Cc1cccnc1)P(=O)(O)O` [RISEDRONIC ACID], the LED in the assay listed under Rattus norvegicus is 0.3 µg/kg.

For `Cc1cccnc1NCC(P(=O)(O)O)P(=O)(O)O`, the LED in the assay filed under Rattus norvegicus amounted to 1000 µg/kg. In addition, in assay [1], half-maximal inhibition (IC50) required 0.989 µM and the Ki stood at 0.155 µM. Besides, in assay [2], the midpoint of inhibition, the IC50, lay at 0.734 µM and affinity was put at a Ki of 0.196 µM.

As for `NCCC(O)(P(=O)(O)O)P(=O)(O)O` [PAMIDRONIC ACID], the LED in the assay filed under Rattus norvegicus is 30 µg/kg.

Take `Cc1cccnc1NC(P(=O)(O)O)P(=O)(O)O`: the LED in the assay listed under Rattus norvegicus worked out at 1 µg/kg.

As for `O=P(O)(O)C(NC1CCCCC1)P(=O)(O)O` [(CYCLOHEXYLAMINO)METHYLENEDIPHOSPHONIC ACID], the LED in the assay filed under Rattus norvegicus worked out at 1 µg/kg.

With `O=P(O)(O)C(CC1CCCCN1)P(=O)(O)O` (stereo not given), in assay [1], the IC50 stood at 0.869 µM and the Ki amounted to 0.112 µM. In assay [2], this compound came in with an IC50 of 0.0238 µM and a Ki of 0.00328 µM.

Take `O=P(O)(O)C(O)(CCc1cccnc1)P(=O)(O)O`: the LED in the assay filed under Rattus norvegicus came out at 1000 µg/kg.
